From ChEMBL document CHEMBL1151855, “Synthesis of novel 1-alkyl-8-substituted-3-(3-methoxypropyl) xanthines as putative A(2B) receptor antagonists” (Bioorg Med Chem, 2009)
pKi: −log10 of the molar value.

Experiments:
Adenosine receptor A2a [1] = biological target: T1, Adenosine receptor A2a (Homo sapiens, UniProt P29274); experiment: Displacement of [3H]ZM241385 from human adenosine A2a receptor expressed in human HeLa cells at 1 uM; format: cell-based
[2] = biological target: T2, Adenosine receptor A2b (Homo sapiens) (UniProt P29275); experiment: Displacement of [3H]DPCPX from human adenosine A2b receptor expressed in HEK293 cells at 1 uM; format: cell-based
T2 sequence (whole entry): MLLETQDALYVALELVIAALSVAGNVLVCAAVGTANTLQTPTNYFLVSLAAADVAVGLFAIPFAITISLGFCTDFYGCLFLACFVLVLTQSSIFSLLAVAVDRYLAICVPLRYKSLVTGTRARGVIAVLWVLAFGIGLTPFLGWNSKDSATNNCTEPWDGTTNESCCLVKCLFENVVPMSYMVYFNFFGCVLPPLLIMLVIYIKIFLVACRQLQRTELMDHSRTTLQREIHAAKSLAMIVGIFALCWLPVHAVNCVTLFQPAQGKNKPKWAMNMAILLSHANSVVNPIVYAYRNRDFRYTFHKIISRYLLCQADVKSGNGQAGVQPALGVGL

Adenosine receptor A2b = biological target: T3, Adenosine receptor A2b (Homo sapiens, UniProt P29275); experiment: Binding affinity to human adenosine A2b receptor expressed in HEK293 cells; format: cell-based
T3 sequence (P29275 whole entry): T2 sequence (whole entry)

Adenosine receptor A2a [3] = biological target: T1, Adenosine receptor A2a; experiment: Binding affinity to human adenosine A2a receptor expressed in human HeLa cells; format: cell-based
Adenosine receptor A1 = biological target: T4, Adenosine receptor A1 (Rattus norvegicus, UniProt P25099); experiment: Binding affinity to rat cortex adenosine A1 receptor
T4 sequence (P25099 whole entry): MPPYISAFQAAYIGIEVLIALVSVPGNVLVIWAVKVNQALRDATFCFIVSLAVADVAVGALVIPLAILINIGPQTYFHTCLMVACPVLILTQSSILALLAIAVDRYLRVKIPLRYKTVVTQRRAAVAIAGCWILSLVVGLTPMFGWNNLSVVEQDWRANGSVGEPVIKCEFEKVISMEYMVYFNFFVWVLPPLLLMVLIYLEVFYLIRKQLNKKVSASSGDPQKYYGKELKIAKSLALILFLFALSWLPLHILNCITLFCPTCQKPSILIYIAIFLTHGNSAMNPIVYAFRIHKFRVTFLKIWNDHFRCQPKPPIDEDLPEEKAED

Adenosine receptor A3 = biological target: T5, Adenosine receptor A3 (Homo sapiens, UniProt P0DMS8); experiment: Binding affinity to human adenosine A3 receptor expressed in human HeLa cells; format: cell-based
T5 sequence (P0DMS8 whole entry): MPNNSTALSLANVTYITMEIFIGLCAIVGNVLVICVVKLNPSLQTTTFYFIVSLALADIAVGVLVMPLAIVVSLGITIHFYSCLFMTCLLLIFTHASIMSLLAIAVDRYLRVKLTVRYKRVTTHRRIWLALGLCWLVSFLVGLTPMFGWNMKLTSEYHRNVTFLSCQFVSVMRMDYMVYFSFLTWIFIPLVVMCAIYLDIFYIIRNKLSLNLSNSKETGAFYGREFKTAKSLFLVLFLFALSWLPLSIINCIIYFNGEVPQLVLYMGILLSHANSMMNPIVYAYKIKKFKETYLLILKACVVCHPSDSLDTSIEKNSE

[4] = biological target: T6, Adenosine receptor A3 (Homo sapiens) (UniProt P0DMS8); experiment: Displacement of [3H]NECA from human adenosine A3 receptor expressed in human HeLa cells at 1 uM; format: cell-based
T6 sequence (whole entry): T5 sequence (P0DMS8 whole entry)

[5] = biological target: T7, Adenosine receptor A1 (Rattus norvegicus) (UniProt P25099); experiment: Displacement of [3H]DPCPX from rat cortex adenosine A1 receptor at 1 uM
T7 sequence (whole entry): T4 sequence (P25099 whole entry)

T1 sequence (P29274 whole entry): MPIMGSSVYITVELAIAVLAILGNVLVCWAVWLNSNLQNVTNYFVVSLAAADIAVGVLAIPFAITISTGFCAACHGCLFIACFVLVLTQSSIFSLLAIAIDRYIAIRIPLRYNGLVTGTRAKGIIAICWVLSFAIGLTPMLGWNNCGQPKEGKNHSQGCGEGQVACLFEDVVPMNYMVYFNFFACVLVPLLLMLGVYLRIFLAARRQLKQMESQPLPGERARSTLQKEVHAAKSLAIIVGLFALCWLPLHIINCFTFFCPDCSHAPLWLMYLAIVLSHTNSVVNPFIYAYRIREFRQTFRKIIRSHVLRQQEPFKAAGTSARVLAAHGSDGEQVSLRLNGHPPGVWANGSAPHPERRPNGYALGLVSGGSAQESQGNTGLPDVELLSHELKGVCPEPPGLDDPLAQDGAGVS

Activity (Adenosine receptor A2a [1]) [%] | Activity [2] [%] | pKi (Adenosine receptor A2b) | pKi (Adenosine receptor A2a [3]) | also measured | Compound
14 | 66 |  |  |  | CCCn1c(=O)c2[nH]c(-c3ccc(-c4ccccc4)cc3)nc2n(CCCOC)c1=O
 |  | 6.90 | 6.66 |  | CCn1c(=O)c2[nH]c(-c3cccs3)nc2n(CCCOC)c1=O
 |  | 7.68 | 6.67 | pKi (Adenosine receptor A1): 7.02; pKi (Adenosine receptor A3): 6.03 | CCn1c(=O)c2[nH]c(-c3ccc(OCC(=O)Nc4ccon4)cc3)nc2n(CCCOC)c1=O
 |  | 6.49 | 6.47 |  | CCCn1c(=O)c2[nH]c(-c3ccccc3)nc2n(CCCOC)c1=O
18 | 11 |  |  |  | CC[S+]([O-])CCn1c(=O)c2[nH]c(-c3ccccc3)nc2n(CCCOC)c1=O (configuration not stated)
 |  | 7.11 | 7.02 |  | CCn1c(=O)c2[nH]c(-c3ccc(OCC(=O)NC4CCCC4)cc3)nc2n(CCCOC)c1=O
84 | 62 |  |  |  | CCCn1c(=O)c2[nH]c(C3CCCC3)nc2n(CCCOC)c1=O
 |  | 7.07 | 6.68 |  | CCn1c(=O)c2[nH]c(-c3ccc[nH]3)nc2n(CCCOC)c1=O
12 | 0 |  |  |  | CC[S+]([O-])CCn1c(=O)c2[nH]c(Cc3ccco3)nc2n(CCCOC)c1=O (configuration not stated)
 |  | 7.03 | 6.69 |  | CCn1c(=O)c2[nH]c(-c3ccc(OCC(=O)Nc4nc5ccccc5[nH]4)cc3)nc2n(CCCOC)c1=O
26 | 70 |  |  |  | CCCn1c(=O)c2[nH]c(CCCc3ccccc3)nc2n(CCCOC)c1=O
25 | 30 |  |  |  | COCCCn1c(=O)n(CC(C)C)c(=O)c2[nH]c(-c3ccccc3)nc21
 |  | 6.31 | 5.30 |  | CCSCCn1c(=O)c2[nH]c(-c3ccco3)nc2n(CCCOC)c1=O
20 | 0 |  |  |  | CCS(=O)(=O)CCn1c(=O)c2[nH]c(-c3ccccc3)nc2n(CCCOC)c1=O
 |  | 6.86 | 6.31 |  | CCn1c(=O)c2[nH]c(-c3ccco3)nc2n(CCCOC)c1=O
 |  | 8.04 | 6.95 | pKi (Adenosine receptor A1): 6.17; pKi (Adenosine receptor A3): 6.40 | CCn1c(=O)c2[nH]c(-c3ccc(OCC(=O)Nc4ccc(C#N)cc4)cc3)nc2n(CCCOC)c1=O
 |  | 7.15 | 6.28 |  | CCn1c(=O)c2[nH]c(-c3ccc(-c4ccccc4)cc3)nc2n(CCCOC)c1=O
54 | 70 |  |  |  | COCCCn1c(=O)n(CCOC)c(=O)c2[nH]c(-c3ccccc3)nc21
 |  | 6.76 | 5.75 | pKi (Adenosine receptor A1): 6.06; pKi (Adenosine receptor A3): 6.68 | CCn1c(=O)c2[nH]c(-c3ccc(OCC(=O)Nc4ccc(N(C)C)cc4)cc3)nc2n(CCCOC)c1=O

Activity (Adenosine receptor A2a [1]) [%] | Activity [2] [%] | pKi (Adenosine receptor A2b) | pKi (Adenosine receptor A2a [3]) | also measured | Compound
 |  | 8.52 | 7.25 | pKi (Adenosine receptor A1): 7.68; pKi (Adenosine receptor A3): 6.02 | CCn1c(=O)c2[nH]c(-c3ccc(OCC(=O)Nc4ccc(F)cc4)cc3)nc2n(CCCOC)c1=O
8 | 41 |  |  |  | CCSCCn1c(=O)c2[nH]c(-c3ccccc3)nc2n(CCCOC)c1=O
 |  | 7.81 | 6.77 | Activity [4]: 69%; Activity [5]: 2% | CCn1c(=O)c2[nH]c(-c3ccc(OCC(=O)Nc4ccccn4)cc3)nc2n(CCCOC)c1=O
 |  | 7.47 | 6.12 | pKi (Adenosine receptor A1): 6.79; pKi (Adenosine receptor A3): 7.02 | CCn1c(=O)c2[nH]c(-c3ccc(OCC(=O)Nc4cccnc4)cc3)nc2n(CCCOC)c1=O
6 | 15 |  |  |  | CCS(=O)(=O)CCn1c(=O)c2[nH]c(Cc3ccco3)nc2n(CCCOC)c1=O
5 | 6 |  |  |  | CCn1c(=O)c2c(nc(-c3ccc(-c4ccccc4)cc3)n2C)n(CCCOC)c1=O
0 | 49 |  |  |  | CCCCCn1c(=O)c2[nH]c(-c3ccccc3)nc2n(CCCOC)c1=O
 |  | 8.54 | 7.01 | pKi (Adenosine receptor A1): 7.00; pKi (Adenosine receptor A3): 5.89 | CCn1c(=O)c2[nH]c(-c3ccc(OCC(=O)Nc4ccc(Br)cc4)cc3)nc2n(CCCOC)c1=O
 |  | 7.81 | 6.38 | pKi (Adenosine receptor A1): 6.76; Activity [4]: 65% | CCn1c(=O)c2[nH]c(-c3ccc(OCC(=O)Nc4ccc(O)cc4)cc3)nc2n(CCCOC)c1=O
11 | 17 |  |  |  | CCn1c(=O)c2[nH]c(Cc3ccco3)nc2n(CCCOC)c1=O
 |  | 6.83 | 6.40 |  | CCCn1c(=O)c2[nH]c(-c3ccc[nH]3)nc2n(CCCOC)c1=O
14 | 1 |  |  |  | CCn1c(=O)c2c(nc(-c3ccco3)n2C)n(CCCOC)c1=O
 |  | 8.52 | 7.06 | pKi (Adenosine receptor A1): 7.44; pKi (Adenosine receptor A3): 5.60 | CCn1c(=O)c2[nH]c(-c3ccc(OCC(=O)Nc4ccccc4)cc3)nc2n(CCCOC)c1=O
 |  | 7.31 | 6.64 | pKi (Adenosine receptor A1): 7.00 | CCn1c(=O)c2[nH]c(-c3ccc(OCC(=O)N4CCc5ccccc5C4)cc3)nc2n(CCCOC)c1=O
25 | 77 |  |  |  | CCCn1c(=O)c2[nH]c(-c3cccs3)nc2n(CCCOC)c1=O
49 | 67 |  |  |  | CCn1c(=O)c2[nH]c(-c3ccccc3)nc2n(CCCOC)c1=O
 |  | 7.93 | 6.83 | pKi (Adenosine receptor A3): 6.15; Activity [5]: 68% | CCn1c(=O)c2[nH]c(-c3ccc(OCC(=O)Nc4ccc(C(C)=O)cc4)cc3)nc2n(CCCOC)c1=O
51 | 21 |  |  |  | CCOCCn1c(=O)c2[nH]c(-c3ccccc3)nc2n(CCCOC)c1=O
1 |  | 5.70 |  |  | CCSCCn1c(=O)c2[nH]c(Cc3ccco3)nc2n(CCCOC)c1=O
